Results published in ChEMBL document CHEMBL6074713, “Chemical Synthesis and Antifibrotic Properties of (±)-Cochlearol T, (±)-Ganocochlearin A, and (±)-Cochlearol Y” (ACS Med Chem Lett, 2024).
Active and inactive are the calls of the source. No cut-off for these calls is given here.

Columns and labels:
HK-2 [1] = assay: Anti-fibrotic activity in HK-2 cell model of 20 ng/ml TGFbeta-1-induced fibrosis injury assessed as Col4A1 mRNA level at 10 uM incubated for 24 to 48 hrs by qPCR analysis (reference value: 8.96 +/- 0.96); format: functional, Homo sapiens; conditions: time 24-48 hrs
HK-2 [2] = assay: Anti-fibrotic activity in HK-2 cell model of 10 ng/ml TGFbeta-1-induced fibrosis injury assessed as Col4A1 mRNA level at 20 uM incubated for 24 to 48 hrs by qPCR analysis (reference value: 2.44 +/- 0.21); format: functional, Homo sapiens; conditions: time 24-48 hrs
[3] = Cytotoxicity against TGFbeta-1-treated HK-2 cells assessed as cell viability at 10 uM incubated for 48 hrs by Cell Titer-Glo assay (Rvb ~ 80 %); format: toxicity, cell-based; conditions: human, read-out: Activity
HK-2 [4] = assay: Anti-fibrotic activity in HK-2 cell model of 10 ng/ml TGFbeta-1-induced fibrosis injury assessed as Col4A1 mRNA level at 10 uM incubated for 24 to 48 hrs by qPCR analysis (reference value: 2.44 +/- 0.21); format: functional, Homo sapiens; conditions: time 24-48 hrs
HK-2 [5] = assay: Anti-fibrotic activity in TGFbeta-1-treated HK-2 cells assessed as decrease in vimentin level at 1 uM incubated for 24 to 48 hrs by Western blot analysis; format: functional, cell-based; conditions: Homo sapiens, time 24-48 hrs
HK-2 [6] = assay: Anti-fibrotic activity in HK-2 cell model of 20 ng/ml TGFbeta-1-induced fibrosis injury assessed as vimentin mRNA level at 10 uM incubated for 24 to 48 hrs by qPCR analysis (reference value: 3.19 +/- 0.23); format: functional, Homo sapiens; conditions: time 24-48 hrs
HK-2 [7] = assay: Anti-fibrotic activity in TGFbeta-1-treated HK-2 cells assessed as vimentin mRNA level at 10 uM incubated for 24 to 48 hrs by qPCR analysis (reference value: 1.88 +/- 0.48); format: functional, Homo sapiens; conditions: time 24-48 hrs
HK-2 [8] = assay: Anti-fibrotic activity in TGFbeta-1-treated HK-2 cells assessed as Col4A1 mRNA level at 10 uM incubated for 24 to 48 hrs by qPCR analysis (reference value: 2.35 +/- 0.38); format: functional, Homo sapiens; conditions: time 24-48 hrs
HK-2 [9] = assay: Anti-fibrotic activity in TGFbeta-1-treated HK-2 cells assessed as decrease in Col4A1 level at 1 uM incubated for 24 to 48 hrs by Western blot analysis; format: functional, cell-based; conditions: Homo sapiens, time 24-48 hrs
HK-2 [10] = assay: Anti-fibrotic activity in HK-2 cell model of 20 ng/ml TGFbeta-1-induced fibrosis injury assessed as vimentin mRNA level at 20 uM incubated for 24 to 48 hrs by qPCR analysis (reference value: 3.19 +/- 0.23); format: functional, Homo sapiens; conditions: time 24-48 hrs
HK-2 [11] = assay: Anti-fibrotic activity in TGFbeta-1-treated HK-2 cells assessed as fibronectin mRNA level at 10 uM incubated for 24 to 48 hrs by qPCR analysis (reference value: 6.88); format: functional, Homo sapiens; conditions: time 24-48 hrs
HK-2 [12] = assay: Cytotoxicity against TGFbeta-1-treated HK-2 cells assessed as decrease in cell viability at 1 to 5 uM incubated for 48 hrs by Cell Titer-Glo assay; format: toxicity, cell-based; conditions: human, hk-2, 48 h, dose 1-5 µM
HK-2 [13] = assay: Anti-fibrotic activity in HK-2 cell model of 10 ng/ml TGFbeta-1-induced fibrosis injury assessed as vimentin mRNA level at 10 uM incubated for 24 to 48 hrs by qPCR analysis (reference value: 1.41 +/- 0.1); format: functional, Homo sapiens; conditions: time 24-48 hrs
HK-2 [14] = assay: Anti-fibrotic activity in HK-2 cell model of 20 ng/ml TGFbeta-1-induced fibrosis injury assessed as Col4A1 mRNA level at 20 uM incubated for 24 to 48 hrs by qPCR analysis (reference value: 8.96 +/- 0.96); format: functional, Homo sapiens; conditions: time 24-48 hrs
HK-2 [15] = assay: Anti-fibrotic activity in TGFbeta-1-treated HK-2 cells assessed as decrease in fibronectin level at 1 uM incubated for 24 to 48 hrs by Western blot analysis; format: functional, cell-based; conditions: Homo sapiens, time 24-48 hrs
HK-2 [16] = assay: Anti-fibrotic activity in HK-2 cell model of 10 ng/ml TGFbeta-1-induced fibrosis injury assessed as vimentin mRNA level at 20 uM incubated for 24 to 48 hrs by qPCR analysis (reference value: 1.41 +/- 0.1); format: functional, Homo sapiens; conditions: time 24-48 hrs
HK-2 [17] = assay: Anti-fibrotic activity in TGFbeta-1-treated HK-2 cells assessed as Col4A1 mRNA level at 10 uM incubated for 24 to 48 hrs by qPCR analysis (reference value: 2.54 +/- 0.24); format: functional, Homo sapiens; conditions: time 24-48 hrs
HK-2 [18] = assay: Anti-fibrotic activity in TGFbeta-1-treated HK-2 cells assessed as fibronectin mRNA level at 10 uM incubated for 24 to 48 hrs by qPCR analysis (reference value: 11.31 +/- 2.49); format: functional, Homo sapiens; conditions: time 24-48 hrs
HK-2 [19] = assay: Anti-fibrotic activity in TGFbeta-1-treated HK-2 cells assessed as decrease in fibronectin level at 5 to 10 uM incubated for 24 to 48 hrs by Western blot analysis; format: functional, cell-based; conditions: Homo sapiens, dose 5-10 µM, time 24-48 hrs
HK-2 [20] = assay: Anti-fibrotic activity in TGFbeta-1-treated HK-2 cells assessed as vimentin mRNA level at 10 uM incubated for 24 to 48 hrs by qPCR analysis (reference value: 3.73 +/- 0.47); format: functional, Homo sapiens; conditions: time 24-48 hrs
HK-2 [21] = assay: Anti-fibrotic activity in TGFbeta-1-treated HK-2 cells assessed as decrease in alpha-SMA level at 1 uM incubated for 24 to 48 hrs by Western blot analysis; format: functional, cell-based; conditions: Homo sapiens, time 24-48 hrs
HK-2 [22] = assay: Anti-fibrotic activity in TGFbeta-1-treated HK-2 cells assessed as decrease in Col4A1 mRNA level at 10 uM incubated for 24 to 48 hrs by qPCR analysis relative to control; format: functional, Homo sapiens; parameters: scale not given: the % may be the effect or the level left; conditions: time 24-48 hrs
HK-2 [23] = assay: Anti-fibrotic activity in TGFbeta-1-treated HK-2 cells assessed as Col4A1 mRNA level at 10 uM incubated for 24 to 48 hrs by qPCR analysis (reference value: 2.81 +/- 0.22); format: functional, Homo sapiens; conditions: time 24-48 hrs
HK-2 [24] = assay: Anti-fibrotic activity in TGFbeta-1-treated HK-2 cells assessed as vimentin mRNA level at 10 uM incubated for 24 to 48 hrs by qPCR analysis (reference value: 2.2 +/- 0.28); format: functional, Homo sapiens; conditions: time 24-48 hrs
HK-2 [25] = assay: Anti-fibrotic activity in TGFbeta-1-treated HK-2 cells assessed as decrease in vimentin level at 1 to 10 uM incubated for 24 to 48 hrs by Western blot analysis; format: functional, cell-based; conditions: Homo sapiens, dose 1-10 µM, time 24-48 hrs
HK-2 [26] = assay: Anti-fibrotic activity in TGFbeta-1-treated HK-2 cells assessed as fibronectin mRNA level at 10 uM incubated for 24 to 48 hrs by qPCR analysis (reference value: 2.16 +/- 0.31); format: functional, Homo sapiens; conditions: time 24-48 hrs
HK-2 [27] = assay: Anti-fibrotic activity in TGFbeta-1-treated HK-2 cells assessed as decrease in fibronectin mRNA level at 10 uM incubated for 24 to 48 hrs by qPCR analysis relative to control; format: functional, Homo sapiens; parameters: scale not given: the % may be the effect or the level left; conditions: time 24-48 hrs
HK-2 [28] = assay: Anti-fibrotic activity in TGFbeta-1-treated HK-2 cells assessed as decrease in alpha-SMA level at 5 to 10 uM incubated for 24 to 48 hrs by Western blot analysis; format: functional, cell-based; conditions: Homo sapiens, dose 5-10 µM, time 24-48 hrs
HK-2 [29] = assay: Anti-fibrotic activity in TGFbeta-1-treated HK-2 cells assessed as decrease in vimentin mRNA level at 10 uM incubated for 24 to 48 hrs by qPCR analysis relative to control; format: functional, Homo sapiens; parameters: scale not given: the % may be the effect or the level left; conditions: time 24-48 hrs

CC(C)=CCCC1(C)Oc2ccc(O)cc2-c2cc(O)ccc21 (racemic)
Activity (HK-2 [1]): 4.08 | Activity (HK-2 [2]): 0.11 | viability at 48 h, 10 µM [3]: 70% | Activity (HK-2 [4]): 0.74 | Activity (HK-2 [5]): Active | Activity (HK-2 [6]): 1.44 | Activity (HK-2 [7]): 0.65 | Activity (HK-2 [8]): 0.66 | Activity (HK-2 [9]): Active | Activity (HK-2 [10]): 0.5 | Activity (HK-2 [11]): 1 | Activity (HK-2 [12]): Non-toxic | Activity (HK-2 [13]): 0.54 | Activity (HK-2 [14]): 1.21 | Activity (HK-2 [15]): Active | Activity (HK-2 [16]): 0.24

CC(C)=CCC[C@]1(C)Oc2ccc(O)cc2C2=CC(=O)CC[C@H]21 (racemic)
Activity (HK-2 [17]): 0.6 | Activity (HK-2 [18]): 0.39 | Activity (HK-2 [19]): Active | Activity (HK-2 [20]): 0.93 | Activity (HK-2 [21]): Active

CC(C)=CCC[C@]1(C)Oc2ccc(O)cc2C2=CC(=O)CC[C@@H]21 (racemic)
Activity (HK-2 [22]): <=50% | Activity (HK-2 [23]): 1.1 | Activity (HK-2 [24]): 1.22 | Activity (HK-2 [25]): Active | Activity (HK-2 [26]): 0.6 | Activity (HK-2 [27]): <=50% | Activity (HK-2 [28]): Active | Activity (HK-2 [29]): <=50%
